For assay [1], the system named is B. bifidum MIMBb23sg DSM 32708. The assay can be described thus: Antibiotic MIC by microdilution analysis (ISO, 2010). In kind it is cell-based, Bifidobacterium bifidum. The conditions noted are these: for MIC: Bifidobacterium bifidum. (In general: Broth dilution looks for growth in wells or tubes with falling amounts of substance.)
The test system of a further assay is bifidobacteria. The settings on record: limit values provided for bifidobacteria (EFSA, 2012); cited from earlier work.
The mark [2] stands for this setting: DSM32708, microdilution analysis, ISO 2010, read-out: MIC of MIMBb23sg.

A word on the MIC: it is the lowest concentration that inhibits growth of the organism.

Where two headings read alike, the source gives them in different places.

`NC[C@H]1O[C@H](O[C@H]2[C@H](O)[C@@H](O[C@H]3O[C@H](CO)[C@@H](O)[C@H](N)[C@H]3O)[C@H](N)C[C@@H]2N)[C@H](O)[C@@H](O)[C@@H]1O` [kanamycin]: in assay [1] (setting [2]), the MIC was determined as 128 µg/mL.

Regarding gentamicin, in assay [1] (microdilution analysis, ISO 2010), the “MIC of MIMBb23sg” value is 32 µg/mL. Besides, the EFSA limit values in the assay on bifidobacteria was 64 µg/mL.

Regarding `CC1(C)S[C@@H]2[C@H](NC(=O)[C@H](N)c3ccccc3)C(=O)N2[C@H]1C(=O)O` [ampicillin], in assay [1] (setting [2]), the MIC worked out at 0.25 µg/mL. In the assay with bifidobacteria, the EFSA limit values was 2 µg/mL.

In the case of `CC[C@H]1OC(=O)[C@H](C)[C@@H](O[C@H]2C[C@@](C)(OC)[C@@H](O)[C@H](C)O2)[C@H](C)[C@@H](O[C@@H]2O[C@H](C)C[C@H](N(C)C)[C@H]2O)[C@](C)(O)C[C@@H](C)C(=O)[C@H](C)[C@@H](O)[C@]1(C)O` [erythromycin], the MIC in assay [1] (setting [2]) amounted to 0.25 µg/mL. The EFSA limit values in the assay with bifidobacteria is 1 µg/mL.

For the compound `O=C(N[C@H](CO)[C@H](O)c1ccc([N+](=O)[O-])cc1)C(Cl)Cl` [chloramphenicol], the MIC in assay [1] (setting [2]) turned out to be 2 µg/mL. For the same compound, the EFSA limit values in the assay with bifidobacteria is 4 µg/mL.

With `CN(C)[C@@H]1C(O)=C(C(N)=O)C(=O)[C@@]2(O)C(O)=C3C(=O)c4c(O)cccc4[C@@](C)(O)[C@H]3C[C@@H]12` [tetracycline], the MIC in assay [1] (setting [2]) worked out at 1 µg/mL.

Regarding `CCC[C@@H]1C[C@@H](C(=O)N[C@@H]([C@H]2O[C@H](SC)[C@H](O)[C@@H](O)[C@H]2O)[C@H](C)Cl)N(C)C1` [clindamycin], the MIC in assay [1] (setting [2]) was determined as 0.25 µg/mL.

As for `[H]/N=C(/N)N[C@H]1[C@H](O)[C@@H](O)[C@H](O[C@@H]2O[C@@H](C)[C@](O)(C=O)[C@H]2O[C@@H]2O[C@@H](CO)[C@H](O)[C@@H](O)[C@@H]2NC)[C@@H](N/C(N)=N\[H])[C@@H]1O` [streptomycin], the MIC in assay [1] (setting [2]) was 128 µg/mL. Besides, in the assay with bifidobacteria, the EFSA limit values was 128 µg/mL.

For `CN[C@H](CC(C)C)C(=O)N[C@H]1C(=O)N[C@@H](CC(N)=O)C(=O)N[C@H]2C(=O)N[C@H]3C(=O)N[C@H](C(=O)N[C@H](C(=O)O)c4cc(O)cc(O)c4-c4cc3ccc4O)[C@H](O)c3ccc(c(Cl)c3)Oc3cc2cc(c3O[C@@H]2O[C@H](CO)[C@@H](O)[C@H](O)[C@H]2O[C@H]2C[C@](C)(N)[C@H](O)[C@H](C)O2)Oc2ccc(cc2Cl)[C@H]1O` [vancomycin], in assay [1] (DSM32708, read-out: MIC of MIMBb23sg), the MIC came to 0.5 µg/mL. In the assay on bifidobacteria, the EFSA limit values was 2 µg/mL.

These data come from patent US20220313753A1, “BIFIDOBACTERIUM BIFIDUM BACTERIAL STRAIN, THE COMPOSITIONS THEREOF AND RELATED USES” (priority 2019, published 2022).
